# Experiments:
# Experiment in all cases: relative viability (nuclei count vs DMSO), 5 days (fraction); higher = more cells survive
# 4EGI-1 + Olaparib = compound: O=C(O)C(Cc1ccccc1[N+](=O)[O-])=NNc1nc(-c2ccc(Cl)c(Cl)c2)cs1 (mixture of isomers) [4EGI-1] + O=C(c1cc(Cc2n[nH]c(=O)c3ccccc23)ccc1F)N1CCN(C(=O)C2CC2)CC1 [Olaparib] (partner 8 µM)
# Summary of the method: (§1)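 Values are medians from duplicate plates. Each reflects relative viability, defined as the nuclei count of treated wells over that of vehicle wells. Lung cancer cell lines in 1536-well plates were pin-tool dosed one day after seeding with one drug alone or with a fixed anchor-drug dose plus five library-drug doses (not always all listed) in √10 steps, then fixed, stained and imaged at 4× after 5 days.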
# XMD8-85 + Palbociclib = compound: CN1CCN(CC1)C2=CC(=C(C=C2)NC3=NC=C4C(=N3)N(C5=CC=CC=C5C(=O)N4C)C)OC [XMD8-85] + CC(=O)c1c(C)c2cnc(Nc3ccc(N4CCNCC4)cn3)nc2n(C2CCCC2)c1=O [Palbociclib] (partner 0.5 µM)
# Summary of the method: as §1
# 4EGI-1 + Pictilisib = compound: O=C(O)C(Cc1ccccc1[N+](=O)[O-])=NNc1nc(-c2ccc(Cl)c(Cl)c2)cs1 (mixture of isomers) [4EGI-1] + CS(=O)(=O)N1CCN(Cc2cc3nc(-c4cccc5[nH]ncc45)nc(N4CCOCC4)c3s2)CC1 [Pictilisib] (partner 1 µM)
# Summary of the method: as §1
# 4EGI-1 + Palbociclib = compound: O=C(O)C(Cc1ccccc1[N+](=O)[O-])=NNc1nc(-c2ccc(Cl)c(Cl)c2)cs1 (mixture of isomers) [4EGI-1] + CC(=O)c1c(C)c2cnc(Nc3ccc(N4CCNCC4)cn3)nc2n(C2CCCC2)c1=O [Palbociclib] (partner 0.5 µM)
# Summary of the method: as §1
cell line,measurement,setting,value
UMC-11,relative viability,4EGI-1 + Olaparib; first compound 0.5 µM,0.36
same,relative viability,4EGI-1 + Olaparib; first compound 1.581 µM,0.35
same,relative viability,4EGI-1 + Olaparib; first compound 5 µM,0.369
same,relative viability,4EGI-1 + Olaparib; first compound 15.81 µM,0.332
same,relative viability,4EGI-1 + Olaparib; first compound 50 µM,0.222
same,relative viability,XMD8-85 + Palbociclib; first compound 0.08 µM,0.359
same,relative viability,XMD8-85 + Palbociclib; first compound 0.253 µM,0.336
same,relative viability,XMD8-85 + Palbociclib; first compound 0.8 µM,0.347
same,relative viability,XMD8-85 + Palbociclib; first compound 2.53 µM,0.308
same,relative viability,XMD8-85 + Palbociclib; first compound 8 µM,0.318
same,relative viability,4EGI-1 + Pictilisib; first compound 0.5 µM,1.01
same,relative viability,4EGI-1 + Pictilisib; first compound 1.581 µM,0.989
same,relative viability,4EGI-1 + Pictilisib; first compound 5 µM,0.896
same,relative viability,4EGI-1 + Pictilisib; first compound 15.81 µM,0.87
same,relative viability,4EGI-1 + Pictilisib; first compound 50 µM,0.587
same,relative viability,4EGI-1 + Palbociclib; first compound 0.5 µM,0.345
same,relative viability,4EGI-1 + Palbociclib; first compound 1.581 µM,0.34
same,relative viability,4EGI-1 + Palbociclib; first compound 5 µM,0.378
same,relative viability,4EGI-1 + Palbociclib; first compound 15.81 µM,0.365
same,relative viability,4EGI-1 + Palbociclib; first compound 50 µM,0.305
NCI-H1651,relative viability,4EGI-1 + Olaparib; first compound 0.5 µM,0.186
same,relative viability,4EGI-1 + Olaparib; first compound 1.581 µM,0.176
same,relative viability,4EGI-1 + Olaparib; first compound 5 µM,0.185
same,relative viability,4EGI-1 + Olaparib; first compound 15.81 µM,0.189
same,relative viability,4EGI-1 + Olaparib; first compound 50 µM,0.151
same,relative viability,XMD8-85 + Palbociclib; first compound 0.08 µM,0.517
same,relative viability,XMD8-85 + Palbociclib; first compound 0.253 µM,0.534
same,relative viability,XMD8-85 + Palbociclib; first compound 0.8 µM,0.475
same,relative viability,XMD8-85 + Palbociclib; first compound 2.53 µM,0.468
same,relative viability,XMD8-85 + Palbociclib; first compound 8 µM,0.405
same,relative viability,4EGI-1 + Pictilisib; first compound 0.5 µM,0.627
same,relative viability,4EGI-1 + Pictilisib; first compound 1.581 µM,0.632
same,relative viability,4EGI-1 + Pictilisib; first compound 5 µM,0.576
same,relative viability,4EGI-1 + Pictilisib; first compound 15.81 µM,0.508
same,relative viability,4EGI-1 + Pictilisib; first compound 50 µM,0.21
same,relative viability,4EGI-1 + Palbociclib; first compound 0.5 µM,0.559
same,relative viability,4EGI-1 + Palbociclib; first compound 1.581 µM,0.478
same,relative viability,4EGI-1 + Palbociclib; first compound 5 µM,0.493
same,relative viability,4EGI-1 + Palbociclib; first compound 15.81 µM,0.534
same,relative viability,4EGI-1 + Palbociclib; first compound 50 µM,0.509
H3255,relative viability,4EGI-1 + Olaparib; first compound 0.5 µM,0.591
same,relative viability,4EGI-1 + Olaparib; first compound 1.581 µM,0.501
same,relative viability,4EGI-1 + Olaparib; first compound 5 µM,0.541
same,relative viability,4EGI-1 + Olaparib; first compound 15.81 µM,0.5
same,relative viability,4EGI-1 + Olaparib; first compound 50 µM,0.405
same,relative viability,XMD8-85 + Palbociclib; first compound 0.08 µM,0.33
same,relative viability,XMD8-85 + Palbociclib; first compound 0.253 µM,0.323
same,relative viability,XMD8-85 + Palbociclib; first compound 0.8 µM,0.285
same,relative viability,XMD8-85 + Palbociclib; first compound 2.53 µM,0.273
same,relative viability,XMD8-85 + Palbociclib; first compound 8 µM,0.26
same,relative viability,4EGI-1 + Pictilisib; first compound 0.5 µM,0.578
same,relative viability,4EGI-1 + Pictilisib; first compound 1.581 µM,0.431
same,relative viability,4EGI-1 + Pictilisib; first compound 5 µM,0.516
same,relative viability,4EGI-1 + Pictilisib; first compound 15.81 µM,0.361
same,relative viability,4EGI-1 + Pictilisib; first compound 50 µM,0.453
same,relative viability,4EGI-1 + Palbociclib; first compound 0.5 µM,0.306
same,relative viability,4EGI-1 + Palbociclib; first compound 1.581 µM,0.316
same,relative viability,4EGI-1 + Palbociclib; first compound 5 µM,0.305
same,relative viability,4EGI-1 + Palbociclib; first compound 15.81 µM,0.315
same,relative viability,4EGI-1 + Palbociclib; first compound 50 µM,0.302
NCI-H1975,relative viability,4EGI-1 + Olaparib; first compound 0.5 µM,0.893
same,relative viability,4EGI-1 + Olaparib; first compound 1.581 µM,0.682
same,relative viability,4EGI-1 + Olaparib; first compound 5 µM,0.805
same,relative viability,4EGI-1 + Olaparib; first compound 15.81 µM,0.812
same,relative viability,4EGI-1 + Olaparib; first compound 50 µM,0.292
same,relative viability,XMD8-85 + Palbociclib; first compound 0.08 µM,0.587
same,relative viability,XMD8-85 + Palbociclib; first compound 0.253 µM,0.511
same,relative viability,XMD8-85 + Palbociclib; first compound 0.8 µM,0.524
same,relative viability,XMD8-85 + Palbociclib; first compound 2.53 µM,0.651
same,relative viability,XMD8-85 + Palbociclib; first compound 8 µM,0.296
same,relative viability,4EGI-1 + Pictilisib; first compound 0.5 µM,0.309
same,relative viability,4EGI-1 + Pictilisib; first compound 1.581 µM,0.324
same,relative viability,4EGI-1 + Pictilisib; first compound 5 µM,0.316
same,relative viability,4EGI-1 + Pictilisib; first compound 15.81 µM,0.322
same,relative viability,4EGI-1 + Pictilisib; first compound 50 µM,0.294
same,relative viability,4EGI-1 + Palbociclib; first compound 0.5 µM,0.725
same,relative viability,4EGI-1 + Palbociclib; first compound 1.581 µM,0.565
same,relative viability,4EGI-1 + Palbociclib; first compound 5 µM,0.527
same,relative viability,4EGI-1 + Palbociclib; first compound 15.81 µM,0.665
same,relative viability,4EGI-1 + Palbociclib; first compound 50 µM,0.41
NCI-H1793,relative viability,4EGI-1 + Olaparib; first compound 0.5 µM,1.02
same,relative viability,4EGI-1 + Olaparib; first compound 1.581 µM,1.16
same,relative viability,4EGI-1 + Olaparib; first compound 5 µM,1.13
same,relative viability,4EGI-1 + Olaparib; first compound 15.81 µM,0.504
same,relative viability,4EGI-1 + Olaparib; first compound 50 µM,0.234
same,relative viability,XMD8-85 + Palbociclib; first compound 0.253 µM,0.251
same,relative viability,XMD8-85 + Palbociclib; first compound 0.8 µM,0.319
same,relative viability,XMD8-85 + Palbociclib; first compound 2.53 µM,0.38
same,relative viability,XMD8-85 + Palbociclib; first compound 8 µM,0.208
same,relative viability,4EGI-1 + Pictilisib; first compound 0.5 µM,0.363
same,relative viability,4EGI-1 + Pictilisib; first compound 1.581 µM,0.266
same,relative viability,4EGI-1 + Pictilisib; first compound 5 µM,0.377
same,relative viability,4EGI-1 + Pictilisib; first compound 15.81 µM,0.241
same,relative viability,4EGI-1 + Pictilisib; first compound 50 µM,0.235
same,relative viability,4EGI-1 + Palbociclib; first compound 0.5 µM,0.339
same,relative viability,4EGI-1 + Palbociclib; first compound 1.581 µM,0.333
same,relative viability,4EGI-1 + Palbociclib; first compound 5 µM,0.329
same,relative viability,4EGI-1 + Palbociclib; first compound 15.81 µM,0.235
same,relative viability,4EGI-1 + Palbociclib; first compound 50 µM,0.205
BEN,relative viability,4EGI-1 + Olaparib; first compound 0.5 µM,1.15
same,relative viability,4EGI-1 + Olaparib; first compound 1.581 µM,1.09
same,relative viability,4EGI-1 + Olaparib; first compound 5 µM,1.2
same,relative viability,4EGI-1 + Olaparib; first compound 15.81 µM,0.891
same,relative viability,4EGI-1 + Olaparib; first compound 50 µM,0.595
same,relative viability,XMD8-85 + Palbociclib; first compound 0.08 µM,0.466
same,relative viability,XMD8-85 + Palbociclib; first compound 0.253 µM,0.449
same,relative viability,XMD8-85 + Palbociclib; first compound 0.8 µM,0.475
same,relative viability,XMD8-85 + Palbociclib; first compound 2.53 µM,0.446
same,relative viability,XMD8-85 + Palbociclib; first compound 8 µM,0.463
same,relative viability,4EGI-1 + Pictilisib; first compound 0.5 µM,0.594
same,relative viability,4EGI-1 + Pictilisib; first compound 1.581 µM,0.656
same,relative viability,4EGI-1 + Pictilisib; first compound 5 µM,0.667
same,relative viability,4EGI-1 + Pictilisib; first compound 15.81 µM,0.51
same,relative viability,4EGI-1 + Pictilisib; first compound 50 µM,0.46
same,relative viability,4EGI-1 + Palbociclib; first compound 0.5 µM,0.452
same,relative viability,4EGI-1 + Palbociclib; first compound 1.581 µM,0.455
same,relative viability,4EGI-1 + Palbociclib; first compound 5 µM,0.498
same,relative viability,4EGI-1 + Palbociclib; first compound 15.81 µM,0.46
same,relative viability,4EGI-1 + Palbociclib; first compound 50 µM,0.458
LC-2-ad,relative viability,4EGI-1 + Olaparib; first compound 0.5 µM,0.631
same,relative viability,4EGI-1 + Olaparib; first compound 1.581 µM,0.617
same,relative viability,4EGI-1 + Olaparib; first compound 5 µM,0.645
same,relative viability,4EGI-1 + Olaparib; first compound 15.81 µM,0.523
same,relative viability,4EGI-1 + Olaparib; first compound 50 µM,0.309
same,relative viability,XMD8-85 + Palbociclib; first compound 0.08 µM,0.482
same,relative viability,XMD8-85 + Palbociclib; first compound 0.253 µM,0.452
same,relative viability,XMD8-85 + Palbociclib; first compound 0.8 µM,0.51
same,relative viability,XMD8-85 + Palbociclib; first compound 2.53 µM,0.49
same,relative viability,XMD8-85 + Palbociclib; first compound 8 µM,0.39
same,relative viability,4EGI-1 + Pictilisib; first compound 0.5 µM,0.655
same,relative viability,4EGI-1 + Pictilisib; first compound 1.581 µM,0.419
same,relative viability,4EGI-1 + Pictilisib; first compound 5 µM,0.485
same,relative viability,4EGI-1 + Pictilisib; first compound 15.81 µM,0.214
same,relative viability,4EGI-1 + Pictilisib; first compound 50 µM,0.142
same,relative viability,4EGI-1 + Palbociclib; first compound 0.5 µM,0.49
same,relative viability,4EGI-1 + Palbociclib; first compound 1.581 µM,0.514
same,relative viability,4EGI-1 + Palbociclib; first compound 5 µM,0.469
same,relative viability,4EGI-1 + Palbociclib; first compound 15.81 µM,0.417
same,relative viability,4EGI-1 + Palbociclib; first compound 50 µM,0.305
NCI-H2085,relative viability,4EGI-1 + Olaparib; first compound 0.5 µM,0.764
same,relative viability,4EGI-1 + Olaparib; first compound 1.581 µM,0.72
same,relative viability,4EGI-1 + Olaparib; first compound 5 µM,0.739
same,relative viability,4EGI-1 + Olaparib; first compound 15.81 µM,0.726
same,relative viability,4EGI-1 + Olaparib; first compound 50 µM,0.374
same,relative viability,XMD8-85 + Palbociclib; first compound 0.08 µM,0.446
same,relative viability,XMD8-85 + Palbociclib; first compound 0.253 µM,0.452
same,relative viability,XMD8-85 + Palbociclib; first compound 0.8 µM,0.419
same,relative viability,XMD8-85 + Palbociclib; first compound 2.53 µM,0.475
same,relative viability,XMD8-85 + Palbociclib; first compound 8 µM,0.397
same,relative viability,4EGI-1 + Pictilisib; first compound 0.5 µM,0.538
same,relative viability,4EGI-1 + Pictilisib; first compound 1.581 µM,0.513
same,relative viability,4EGI-1 + Pictilisib; first compound 5 µM,0.52
same,relative viability,4EGI-1 + Pictilisib; first compound 15.81 µM,0.507
same,relative viability,4EGI-1 + Pictilisib; first compound 50 µM,0.439
same,relative viability,4EGI-1 + Palbociclib; first compound 0.5 µM,0.518
same,relative viability,4EGI-1 + Palbociclib; first compound 1.581 µM,0.462
same,relative viability,4EGI-1 + Palbociclib; first compound 5 µM,0.453
same,relative viability,4EGI-1 + Palbociclib; first compound 15.81 µM,0.474
same,relative viability,4EGI-1 + Palbociclib; first compound 50 µM,0.339
